From article PMC11607671, “Antiviral activity of cathelicidins against porcine epidemic diarrhea virus (PEDV): Mechanisms, and efficacy” (Virus Research, 2024)

Columns and labels:
[1] = system: PEDV-GFP; test: Post-incubation (post-treatment) antiviral assay; format: cell-based, Porcine epidemic diarrhea virus; conditions: Vero cells exposed to PEDV-GFP 2 h, washed, then AMPs for 3 h; FC; Fig. 7B, C
Experimental: (§1) In post-incubation assays (Fig. 7A), cells were initially exposed to the virus for 2 h, washed 2times with PBS and subsequently treated with AMPs for 3 h Both for pre- and post-infection assays, after the respective incubation periods, the cells were assessed using fluorescence microscopy and quantified using FC as described above.
Fig. 7 Effects of AMPs in post-incubation assay. A) Design and setup of post-incubation assay. B) The percentage of GFP-positive cells was quantified using FC during post-incubation. C) The FC histogram illustrates the fluorescence intensity of GFP after treatment with CATH-B1 and LL-37. […] The reported values represent the mean ± SD derived from three independent experiments performed in triplicate.

[2] = system: PEDV; test: Transmission electron microscopy of peptide-treated virus; set-up: species or system Porcine epidemic diarrhea virus; conditions: PEDV treated with 10 µM peptide, negative stain, Fig. 9
Experimental: PEDV was treated with CATH-B1, LL-37, PMAP-23, and PMAP-36 for one minute at 37 °C. Subsequently, 10 µL of the sample was placed onto a freshly carbon-coated copper grid. The grids were washed 3 times with PBS and then fixed with 1% glutaraldehyde (Sigma-Aldrich, St. Louis, MO, USA) in PBS for 10 min. Following this fixation, the grids were rinsed 2 times with PBS and 4 times with MilliQ water. They were stained for 5 min in Uranyl Acetate (pH 7) then briefly washed with methylcellulose/uranyl acetate (pH 4) and incubated for 5 min on ice. Finally, the grids were looped out of the solution and air-dried. The samples were subsequently examined in a JEM1010 (JEOL) equipped with a Veleta 2k × 2k CCD camera (EMSIS, Munster, Germany).
Fig. 9 The effect of AMPs on the morphology of the virus. PEDV (MOI=0.3), which was pre-incubated with peptides. TEM images were taken of PEDV alone (A–D), PEDV treated with 10 µM LL-37 (E-H), PEDV treated with 10 µM CATH-B1 (I-L), PEDV treated with 10 µM PMAP-23 (M, N), and PEDV treated with 10 µM PMAP-36 (O, P). […] Micrographs were captured with a pixel size of 0,5 nm and analyzed visually using ImageJ. The micrographs are representative of observations from three independent experiments. Scale bars represent 100 nm.

[3] = system: PEDV-GFP; test: Pre-incubation (pre-treatment) antiviral assay; format: cell-based, Porcine epidemic diarrhea virus; conditions: Vero cells treated 3 h with AMPs (0-10 µM), washed, then infected with PEDV-GFP MOI 0.3 for 2 h; FC; Fig. 6B, C
Experimental: The effect of AMPs on viral infectivity was also determined when they were added to Vero-cells before (pre-treatment) or after (post-treatment) infection. In the pre-treatment assay (Fig. 6A), Vero cells were treated with different concentrations of CATH-B1 and LL-37 peptides (ranging from 0 to 10 µM) for various durations (1, 2, 3, 4, and 24 h) at 37 °C. Subsequently, the cells were washed 2 times with PBS and infected with PEDV-GFP at an MOI of 0.3 for 2 h
as §1
Fig. 6 Effects of AMPs in pre-incubation assay. A) Experimental set-up of pre-incubation experiment. B) FC was employed to quantify the percentage of GFP-positive cells during pre-incubation. […] The reported values represent the mean ± SD derived from three independent experiments performed in triplicate. * p < 0.05; ** p < 0.01.

[4] = system: PEDV; test: Co-incubation antiviral assay, PEDV MOI=1, Vero cells; format: cell-based, Porcine epidemic diarrhea virus; conditions: Fig. 4B
Experimental: In order to determine the effect of AMPs on the infectivity of PEDV, Vero cells (5 × 10^5 per well) were seeded in 12-well plates and cultured overnight at 37 °C, 5% CO2. In a co-incubation of virus and AMPs experiments (Fig. 2A), the mixture of AMPs (0–10 µM) and PEDV-GFP (MOI= 0.3) in a 1 mL volume of DMEM (P/S + 10% FCS) was added to the cells and incubated at 37 °C. After 2 h, the supernatant was replaced with fresh DMEM (P/S + 10% FCS) and incubated for 24 h. Subsequently, the cells were washed 2 times with flow cytometry buffer (500 mL PBS+ 10 mL FCS+ 250 µL of 10% NaN3) and were imaged with an EVOS M5000 Imaging System for semi-quantitative determination of infectivity. Eventually, cells were carefully detached by 2.5% trypsin, stained with ViaKrome 808 fixable viability dye (1:1000), and incubated for 30 min at 4 °C. Following washing, the cells were fixed using 50 µL of 4% PFA for 10 min, and a minimum of 1 × 10^5 cells were acquired using the CytoFLEX LX Flow Cytometer (FC)(Beckman Coulter, USA). Data was analyzed using FlowJo software v.10.6 (Flowjo LCC, Ashland, OR, USA).
Fig. 4 The inhibitory effect of AMPs on PEDV at MOI=1. A) Fluorescence microscopy image was captured at 20 × magnification to visualize the GFP fluorescence signal in Vero cells following co-incubation of AMPs and PEDV at MOI=1. B) The percentage of GFP-positive cells was determined by FC after 3 h co-incubation of PEDV and AMPs. C) The fluorescence intensity of GFP across three different concentrations of LL-37 was illustrated through the FC histogram. […] The reported values in 4A represent the mean ± SD of three independent experiments performed in duplicate **** p < 0.0001.

LLGDFFRKSKEKIGKEFKRIVQRIKDFLRNLVPRTES [LL-37, human cathelicidin antimicrobial peptide, 37 residues]
antiviral activity in post-incubation assay, in words [1]: very moderate effect | virus aggregation (TEM) [2]: in some cases, extensive virus aggregation | effect on virus morphology / membrane (TEM) ([2]; one minute at 37 °C): significant membrane disruption | antiviral activity in pre-incubation assay, in words [3]: potent inhibition of viral infection in Vero cells at all three concentrations | % infected cells (FC), co-incubation at MOI=1 ([4]; 10 µM peptide, PEDV MOI=1, Vero cells, no-peptide control almost 100%): 30% | antiviral effect at MOI=1, in words ([4]; PEDV MOI=1, co-incubation, Vero cells, FC): remained strong
